From US9376442B2, “Methylpyrrolopyrimidinecarboxamides” (Takeda GmbH, priority 2009, dated 2016)

What follows are molecules tested against T1, PDE5A1 (Homo sapiens, UniProt O76074) (assay: Inhibition of type 5 phosphodiesterase (PDE5) activity, modified SPA test with human platelet lysate). Conditions: 0.5 μM cGMP, read-out: PDE5A1 inhibitory values [measured as −log IC50 (mol/l)] (converted).
T1 construct: from tissue; host or cells: human platelets from fresh donor blood (10,000 x g supernatant of sonicated lysate)
Assay type: biochemical
Method: Method for Measuring Inhibition of the Type 5 Phosphodiesterase (PDE5) Activity:
As a source for human PDE5, platelets are used. For that purpose, 150 ml fresh blood from human donors anticoagulated with citrate [final concentration 0.3% (w/v)] is centrifuged at 200 g for 10 min to obtain the so-called platelet-rich-plasma (PRP) as a supernatant. 1/10 volume of ACD solution (85 mM Na3-citrate, 111 mM D-glucose, 71 mM citric acid, pH 4.4) is added to 9/10 volume of PRP. After centrifugation (1,400 g, 10 min) the cell pellet is resuspended in 3 ml homogenization buffer (NaCl 140 mM, KCl 3.8 mM, EGTA (ethylene glycol tetraacetic acid) 1 mM, MgCl2 1 mM, Tris-HCl 20 mM, beta-mercaptoethanol 1 mM, pH 8.2) plus protease-inhibitor mix giving rise to the final concentrations of 0.5 mM Pefablock (Roche), 10 μM Leupeptin, 5 μM Trypsininhibitor, 2 mM Benzamidin and 10 μM Pepstatin A. The suspension is sonified and thereafter centrifuged for 15 min at 10,000 g. The resulting supernatant (platelet lysate) is used for enzymatic testings.
PDE5A1 activity is inhibited by the compounds of the present subject matter in a modified SPA (scintillation proximity assay) test, supplied by Amersham Biosciences (see procedural instructions “phosphodiesterase [3H]cAMP SPA enzyme assay, code TRKQ 7090”), carried out in 96-well microtitre plates (MTP's). The test volume is 100 μl and contains 20 mM Tris buffer (pH 7.4), 0.1 mg of BSA (bovine serum albumin)/ml, 5 mM Mg^2+, 1 μM motapizone, 10 nM PDE2 inhibitor 2-(3,4-dimethoxybenzyl)-7-[(1R,2R)-2-hydroxy-1-(2-phenylethyl)propyl]-5-methylimidazo[5,1-f][1,2,4]triazin-4(3H)-one, 0.5 μM cGMP (cyclic guanosine monophosphate) (including about 50,000 cpm of [3H]cGMP as a tracer), 1 μl of the respective compound dilution in dimethylsulfoxide (DMSO) and sufficient PDE5-containing platelet lysat (10,000×g supernatant, see above) to ensure that 10-20 wt % of the cGMP is converted under the said experimental conditions. […] After a preincubation of 5 min at 37° C., the reaction is started by adding the substrate (cGMP) and the assay is incubated for a further 15 min; after that, it is stopped by adding SPA beads (50 μl). In accordance with the manufacturer's instructions, the SPA beads had previously been resuspended in water, but are then diluted 1:3 (v/v) in water; the diluted solution also contains 3 mM […] (IBMX) to ensure a complete PDE activity stop. After the beads have been sedimented (>30 min), the MTP's are analyzed in commercially available luminescence detection devices. The corresponding IC50 values of the compounds for the inhibition of PDE activity are determined from the concentration-effect curves by means of non-linear regression.

Row | Structure (SMILES) | IC50 [nM]
1 | Cc1[nH]c2c(-c3c(OCC4CC4)ccc4c3OCO4)ncnc2c1C(=O)NC1CN(C(=O)C(C)O)CC1O (mixture of isomers) [Example F10, Diastereomeric mixture of 4-[5-(Cyclopropylmethoxy)-1,3-benzodioxol-4-yl]-N-{(3R,4R)-4-hydroxy-1-[(2S)-2-hydroxypropanoyl]pyrrolidin-3-yl}-6-methyl-5H-pyrrolo[3,2-d]pyrimidine-7-carboxamide and 4-[5-(cyclopropylmethoxy)-1,3-benzodioxol-4-yl]N-{(3S,4S)-4-hydroxy-1-[(2S)-2-hydroxypropanoyl]pyrrolidin-3-yl}-6-methyl-5H-pyrrolo[3,2-d]pyrimidine-7-carboxamide] | < 1
2 | COc1ccc(-c2ncnc3c(C(=O)NC4CN(C(=O)C(C)O)CC4O)c(C)[nH]c23)c(OCC2CC2)c1 (mixture of isomers) [Example F40, Diastereomeric mixture of 4-[2-(cyclopropylmethoxy)-4-methoxyphenyl]-N{(3R,4R)-4-hydroxy-1-[(2S)-2-hydroxypropanoyl]pyrrolidin-3-yl}-6-methyl-5H-pyrrolo[3,2-d]pyrimidine-7-carboxamide and 4-[2-(cyclopropylmethoxy)-4-methoxyphenyl]-N-{(3S,4S)-4-hydroxy-1-[(2S)-2-hydroxypropanoyl]pyrrolidin-3-yl}-6-methyl-5H-pyrrolo[3,2-d]pyrimidine-7-carboxamide] | < 1
3 | COc1ccc(OCC2CC2)c(-c2ncnc3c(C(=O)NC4CCN(C(=O)C(C)O)CC4O)c(C)[nH]c23)c1 (mixture of isomers) [Example F50, Diastereomeric mixture of 4-[2-(Cyclopropylmethoxy)-5-methoxyphenyl]-N{(3R,4R)-3-hydroxy-1-[(2S)-2-hydroxypropanoyl]piperidin-4-yl}-6-methyl-5H-pyrrolo[3,2-d]pyrimidine-7-carboxamide and 4-[2-(Cyclopropylmethoxy)-5-methoxyphenyl]-N-{(3S,4S)-3-hydroxy-1-[(2S)-2-hydroxypropanoyl]piperidin-4-yl}-6-methyl-5H-pyrrolo[3,2-d]pyrimidine-7-carboxamide] | < 1
4 | CCc1ccc(OCC2CC2)c(-c2ncnc3c(C(=O)NC4CN(C(=O)C(C)O)CC4O)c(C)[nH]c23)c1 (mixture of isomers) [Example F98, Diastereomeric mixture of 4-[2-(cyclopropylmethoxy)-5-ethylphenyl]-N{(3R,4R)-4-hydroxy-1-[(2S)-2-hydroxypropanoyl]pyrrolidin-3-yl}-6-methyl-5H-pyrrolo[3,2-d]pyrimidine-7-carboxamide and 4-[2-(cyclopropylmethoxy)-5-ethylphenyl]-N-{(3S,4S)-4-hydroxy-1-[(2S)-2-hydroxypropanoyl]pyrrolidin-3-yl}-6-methyl-5H-pyrrolo[3,2-d]pyrimidine-7-carboxamide] | 1 to 10
5 | COc1ccc(OCC2CC2)c(-c2ncnc3c(C(=O)NC4CN(C(=O)C(C)O)CC4O)c(C)[nH]c23)c1 (mixture of isomers) [Example F120, 4-[2-(Cyclopropylmethoxy)-5-methoxyphenyl]-N-{(31R*,4R*)-4-hydroxy-1-[(2S)-2-hydroxypropanoyl]pyrrolidin-3-yl}-6-methyl-5H-pyrrolo[3,2-d]pyrimidine-7-carboxamide] | 1 to 10
6 | CC(=O)N1C[C@@H](O)[C@H](NC(=O)c2c(C)[nH]c3c(-c4c(OCC5CC5)ccc5c4OCO5)ncnc23)C1 (relative stereo) [Example E16, N-[(3R*,4R*)-1-acetyl-4-hydroxypyrrolidin-3-yl]-4-[5-(cyclopropylmethoxy)-1,3-benzodioxol-4-yl]-6-methyl-5H-pyrrolo[3,2-d]pyrimidine-7-carboxamide] | < 1
7 | CCC(=O)N1C[C@@H](O)[C@H](NC(=O)c2c(C)[nH]c3c(-c4c(OCC5CC5)ccc5c4OCO5)ncnc23)C1 (relative stereo) [Example E17, 4-[5-(Cyclopropylmethoxy)-1,3-benzodioxol-4-yl]-N-[(3R*,4R*)-4-hydroxy-1-propionylpyrrolidin-3-yl]-6-methyl-5H-pyrrolo[3,2-d]pyrimidine-7-carboxamide] | < 1
